# Where a SMILES comes first, the peptide text is derived from it. [ ]: non-standard residue; d: D form. The star is where a group is joined. Orn(α-tetramethylguanidino) = CN(C)C(=N[C@@H](CCCN)C(=O)*)N(C)C; Orn = NCCC[C@H](N)C(=O)O
# Columns and labels:
# P. aeruginosa DSM 1117 = test: Transmission electron microscopy, morphological changes; type: cell-based, Pseudomonas aeruginosa; settings: 1 h
# Method: (§1) Peptide-bacteria mixtures were fixed (2% glutaraldehyde, 5 mmol/L CaCl2, 10 mmol/L MgCl2 in 0.1 mol/L sodium cacodylate buffer, pH 7.4) overnight at 4°C. […] Samples were rinsed with distilled water (5 × 10 min), incubated with aqueous uranylacetate (0.5% w/v) for 1 h at 4°C, washed with distilled water (3 × 10 min), and embedded in Epon. The hardened blocks were sectioned (50 nm) on a UCT ultramicrotome (Leica, Vienna, Austria), stained with uranyl acetate and lead citrate on an AC20 system (Leica), and visualized at a Tecnai 12 electron microscope (FEI, Eindhoven, The Netherlands) at 80 kV. Morphological effects were quantified on average for 25 cells per condition.
# E. coli DSM 1103 = test: as above; type: cell-based, Escherichia coli; settings: 1 h
# Method: as §1
# P. aeruginosa elastase = target: T1, P. aeruginosa elastase (Pseudomonas aeruginosa, UniProt P14756); test: Elastase assay (proteolytic stability); type: in vitro ADME; settings: Pseudomonas aeruginosa, isolated enzyme elastase; after 6 h, elastase 12 units/mL, pH 8.3, 37°C; read-out: Peptide remaining with elastase
# T1 construct: purchased Merck (Darmstadt, Germany)
# T1 sequence (P14756 198-498): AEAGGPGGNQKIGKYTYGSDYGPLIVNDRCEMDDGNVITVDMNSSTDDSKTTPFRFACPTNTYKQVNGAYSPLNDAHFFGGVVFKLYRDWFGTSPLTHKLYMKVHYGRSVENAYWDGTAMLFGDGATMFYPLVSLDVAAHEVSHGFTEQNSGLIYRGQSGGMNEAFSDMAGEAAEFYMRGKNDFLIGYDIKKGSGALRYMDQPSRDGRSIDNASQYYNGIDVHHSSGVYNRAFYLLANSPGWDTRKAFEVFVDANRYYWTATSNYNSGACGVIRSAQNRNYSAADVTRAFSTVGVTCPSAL
# Method: A stock solution of P. aeruginosa elastase (0.26 U/μL) was prepared in Tris-HCl (5 mmol/L, pH 8.3) and stored at −80°C. Peptides (0.5 g/L in 5 mmol/L Tris-HCl, pH 8.3) were incubated with elastase (0.012 U/μL) at 37°C under constant shaking (450 rpm) for 0, 0.5, 2, 4, and 6 h. Aliquots (10.5 μL) were precipitated with a mixture of acetonitrile and ethanol (1:1 v/v) containing 0.1% TFA (21 μL), centrifuged, the supernatant transferred into a new tube, and dried in vacuum. Samples were dissolved in aqueous acetonitrile (3% v/v) containing TFA (0.1% v/v) and analyzed by RP-HPLC using the conditions described above.
# [1] = test system: K. pneumoniae DSM 681 (ATCC 10031); type: cell-based, Klebsiella pneumoniae; settings: DSM 681, 24 h
# Method: (§2) MICs of P. aeruginosa strains DSM 1117 (ATCC 27853), DSM 3227 (ATCC 19429), and DSM 9644 were determined in a microdilution broth assay using 50 or 100% MHB (11.5 and 23 g/L MHB, respectively) whereas MICs of E. coli DSM 1103 (ATCC 25922) and K. pneumoniae DSM 681 (ATCC 10031) were determined in TSB (30 g/L TSB). Peptides (1 g/L in water) were serially two-fold diluted in a 96-well microtiter plate (PS, sterile, flat bottom) in 50 μL of the corresponding medium to final concentrations of 512–4 μg/mL. Bacteria were grown in nutrient broth overnight and diluted to a cell concentration of 1.5 × 10^7 cells/mL in the corresponding medium. Cell densities were determined by using the McFarland standard as reference. An aliquot (50 μL) of the cell culture was added to each well and incubated (37°C, 24 h). The OD595 was determined in a SpectraMax 340PC (Molecular Devices, Sunnyvale, USA). Additionally, MIC values were also determined for high bacteria densities (5 × 10^8 cells/mL) corresponding to the conditions used for TEM, as described above.
# [2] = test system: P. aeruginosa DSM 1117 (ATCC 27853); type: cell-based, Pseudomonas aeruginosa; settings: DSM 1117, 24 h
# Method: as §2
smiles,measurement,setting,value
"CC(C)C[C@H](NC(=O)[C@H](CCCNC(=N)N)NC(=O)[C@@H]1CCCN1C(=O)[C@H](Cc1c[nH]cn1)NC(=O)[C@@H]1CCCN1C(=O)[C@@H]1CCCN1C(=O)[C@H](CCCNC(=N)N)NC(=O)[C@@H]1CCCN1C(=O)[C@H](CCCNC(=N)N)NC(=O)[C@@H]1CCCN1C(=O)[C@H](CCCN)NC(=O)[C@H](Cc1ccc(O)cc1)NC(=O)[C@@H](NC(=O)[C@@H]1CCCN1C(=O)[C@H](CCCNC(=N)N)NC(=O)[C@H](CCCN)NC(=O)[C@H](Cc1c[nH]c2ccccc12)NC(=O)[C@H](CCCN)NC(=O)[C@H](Cc1c[nH]c2ccccc12)NC(=O)[C@H](CCCN)NC(=O)[C@H](Cc1c[nH]c2ccccc12)NC(=O)[C@H](CCCN)N=C(N(C)C)N(C)C)C(C)C)C(=O)O [Api794, gu-O(WO)3RPVYOPRPRPPHPRL-OH] ({Orn(α-tetramethylguanidino)}-W[Orn]W[Orn]W[Orn]RPVY[Orn]PRPRPPHPRL-OH)",Cells spongy,P. aeruginosa DSM 1117; 16 µg/mL,0%
same,"DNA/ribosomes relocalization: +++, extremely relocalized",P. aeruginosa DSM 1117; 16 µg/mL,0%
same,"DNA/ribosomes relocalization: ++, relocalized",P. aeruginosa DSM 1117; 16 µg/mL,23%
same,"DNA/ribosomes relocalization: +, starting",P. aeruginosa DSM 1117; 16 µg/mL,37%
same,"DNA/ribosomes relocalization: -, no",P. aeruginosa DSM 1117; 16 µg/mL,40%
same,"Membrane: b, broken",P. aeruginosa DSM 1117; 16 µg/mL,0%
same,"Membrane: i, intact",P. aeruginosa DSM 1117; 16 µg/mL,100%
same,"Membrane: r, ruptured",P. aeruginosa DSM 1117; 16 µg/mL,0%
same,"Ribosome clustering: +++, extremely clustered",P. aeruginosa DSM 1117; 16 µg/mL,0%
same,"Ribosome clustering: ++, clustered",P. aeruginosa DSM 1117; 16 µg/mL,0%
same,"Ribosome clustering: +, starting",P. aeruginosa DSM 1117; 16 µg/mL,80%
same,"Ribosome clustering: -, no",P. aeruginosa DSM 1117; 16 µg/mL,20%
same,Vesicle release,P. aeruginosa DSM 1117; 16 µg/mL,87%
same,"dissociated Fragments: +, small and thin",P. aeruginosa DSM 1117; 16 µg/mL,10%
same,"dissociated Fragments: -, no",P. aeruginosa DSM 1117; 16 µg/mL,77%
same,"dissociated Fragments: LV, large vesicles",P. aeruginosa DSM 1117; 16 µg/mL,0%
same,Cells spongy,P. aeruginosa DSM 1117; 64 µg/mL,0%
same,"DNA/ribosomes relocalization: +++, extremely relocalized",P. aeruginosa DSM 1117; 64 µg/mL,83%
same,"DNA/ribosomes relocalization: ++, relocalized",P. aeruginosa DSM 1117; 64 µg/mL,10%
same,"DNA/ribosomes relocalization: +, starting",P. aeruginosa DSM 1117; 64 µg/mL,3%
same,"DNA/ribosomes relocalization: -, no",P. aeruginosa DSM 1117; 64 µg/mL,3%
same,"Membrane: b, broken",P. aeruginosa DSM 1117; 64 µg/mL,80%
same,"Membrane: i, intact",P. aeruginosa DSM 1117; 64 µg/mL,20%
same,"Membrane: r, ruptured",P. aeruginosa DSM 1117; 64 µg/mL,47%
same,"Ribosome clustering: +++, extremely clustered",P. aeruginosa DSM 1117; 64 µg/mL,73%
same,"Ribosome clustering: ++, clustered",P. aeruginosa DSM 1117; 64 µg/mL,10%
same,"Ribosome clustering: -, no",P. aeruginosa DSM 1117; 64 µg/mL,3%
same,Vesicle release,P. aeruginosa DSM 1117; 64 µg/mL,20%
same,"dissociated Fragments: ++, long and thin",P. aeruginosa DSM 1117; 64 µg/mL,63%
same,"dissociated Fragments: +, small and thin",P. aeruginosa DSM 1117; 64 µg/mL,20%
same,"dissociated Fragments: LV, large vesicles",P. aeruginosa DSM 1117; 64 µg/mL,30%
same,Cells spongy,P. aeruginosa DSM 1117; 256 µg/mL,80%
same,"DNA/ribosomes relocalization: +++, extremely relocalized",P. aeruginosa DSM 1117; 256 µg/mL,100%
same,"DNA/ribosomes relocalization: ++, relocalized",P. aeruginosa DSM 1117; 256 µg/mL,0%
same,"DNA/ribosomes relocalization: +, starting",P. aeruginosa DSM 1117; 256 µg/mL,0%
same,"DNA/ribosomes relocalization: -, no",P. aeruginosa DSM 1117; 256 µg/mL,0%
same,"Membrane: b, broken",P. aeruginosa DSM 1117; 256 µg/mL,67%
same,"Membrane: i, intact",P. aeruginosa DSM 1117; 256 µg/mL,34%
same,"Membrane: r, ruptured",P. aeruginosa DSM 1117; 256 µg/mL,67%
same,"Ribosome clustering: +++, extremely clustered",P. aeruginosa DSM 1117; 256 µg/mL,100%
same,"Ribosome clustering: ++, clustered",P. aeruginosa DSM 1117; 256 µg/mL,0%
same,"Ribosome clustering: +, starting",P. aeruginosa DSM 1117; 256 µg/mL,0%
same,"Ribosome clustering: -, no",P. aeruginosa DSM 1117; 256 µg/mL,0%
same,Vesicle release,P. aeruginosa DSM 1117; 256 µg/mL,3%
same,"dissociated Fragments: ++, long and thin",P. aeruginosa DSM 1117; 256 µg/mL,80%
same,"dissociated Fragments: -, no",P. aeruginosa DSM 1117; 256 µg/mL,7%
same,"dissociated Fragments: LV, large vesicles",P. aeruginosa DSM 1117; 256 µg/mL,93%
same,Cells spongy,P. aeruginosa DSM 1117; 512 µg/mL,87%
same,"DNA/ribosomes relocalization: +++, extremely relocalized",P. aeruginosa DSM 1117; 512 µg/mL,100%
same,"DNA/ribosomes relocalization: ++, relocalized",P. aeruginosa DSM 1117; 512 µg/mL,0%
same,"DNA/ribosomes relocalization: +, starting",P. aeruginosa DSM 1117; 512 µg/mL,0%
same,"DNA/ribosomes relocalization: -, no",P. aeruginosa DSM 1117; 512 µg/mL,0%
same,"Ribosome clustering: +++, extremely clustered",P. aeruginosa DSM 1117; 512 µg/mL,93%
same,"Ribosome clustering: ++, clustered",P. aeruginosa DSM 1117; 512 µg/mL,7%
same,"Ribosome clustering: +, starting",P. aeruginosa DSM 1117; 512 µg/mL,0%
same,"Ribosome clustering: -, no",P. aeruginosa DSM 1117; 512 µg/mL,0%
same,Vesicle release,P. aeruginosa DSM 1117; 512 µg/mL,0%
same,"dissociated Fragments: ++, long and thin",P. aeruginosa DSM 1117; 512 µg/mL,60%
same,"dissociated Fragments: +, small and thin",P. aeruginosa DSM 1117; 512 µg/mL,0%
same,"dissociated Fragments: -, no",P. aeruginosa DSM 1117; 512 µg/mL,40%
same,"dissociated Fragments: LV, large vesicles",P. aeruginosa DSM 1117; 512 µg/mL,97%
same,"Cell: r, ruptured",E. coli DSM 1103; 16 µg/mL,0%
same,DNA/Ribosomes relocalized,E. coli DSM 1103; 16 µg/mL,0%
same,"Fragments: +++, long and thick",E. coli DSM 1103; 16 µg/mL,0%
same,"Fragments: ++, long and thin",E. coli DSM 1103; 16 µg/mL,23%
same,"Fragments: +, small and thin",E. coli DSM 1103; 16 µg/mL,40%
same,"Fragments: -, no",E. coli DSM 1103; 16 µg/mL,37%
same,"Fragments: LV, large vesicles",E. coli DSM 1103; 16 µg/mL,0%
same,"Membrane: i, intact",E. coli DSM 1103; 16 µg/mL,33%
same,"Membrane: w, wrinkled",E. coli DSM 1103; 16 µg/mL,67%
same,Vesicle release strong,E. coli DSM 1103; 16 µg/mL,100%
same,"Cell: r, ruptured",E. coli DSM 1103; 64 µg/mL,0%
same,DNA/Ribosomes relocalized,E. coli DSM 1103; 64 µg/mL,0%
same,"Fragments: +++, long and thick",E. coli DSM 1103; 64 µg/mL,23%
same,"Fragments: ++, long and thin",E. coli DSM 1103; 64 µg/mL,33%
same,"Fragments: +, small and thin",E. coli DSM 1103; 64 µg/mL,27%
same,"Fragments: -, no",E. coli DSM 1103; 64 µg/mL,17%
same,"Fragments: LV, large vesicles",E. coli DSM 1103; 64 µg/mL,3%
same,"Membrane: i, intact",E. coli DSM 1103; 64 µg/mL,100%
same,"Membrane: w, wrinkled",E. coli DSM 1103; 64 µg/mL,0%
same,Vesicle release strong,E. coli DSM 1103; 64 µg/mL,97%
same,"Cell: r, ruptured",E. coli DSM 1103; 256 µg/mL,0%
same,DNA/Ribosomes relocalized,E. coli DSM 1103; 256 µg/mL,0%
same,"Fragments: +++, long and thick",E. coli DSM 1103; 256 µg/mL,3%
same,"Fragments: ++, long and thin",E. coli DSM 1103; 256 µg/mL,37%
same,"Fragments: +, small and thin",E. coli DSM 1103; 256 µg/mL,43%
same,"Fragments: -, no",E. coli DSM 1103; 256 µg/mL,17%
same,"Fragments: LV, large vesicles",E. coli DSM 1103; 256 µg/mL,93%
same,"Membrane: i, intact",E. coli DSM 1103; 256 µg/mL,3%
same,"Membrane: w, wrinkled",E. coli DSM 1103; 256 µg/mL,97%
same,Vesicle release strong,E. coli DSM 1103; 256 µg/mL,97%
same,"Cell: r, ruptured",E. coli DSM 1103; 512 µg/mL,3%
same,DNA/Ribosomes relocalized,E. coli DSM 1103; 512 µg/mL,30%
same,"Fragments: +++, long and thick",E. coli DSM 1103; 512 µg/mL,17%
same,"Fragments: ++, long and thin",E. coli DSM 1103; 512 µg/mL,30%
same,"Fragments: +, small and thin",E. coli DSM 1103; 512 µg/mL,37%
same,"Fragments: -, no",E. coli DSM 1103; 512 µg/mL,17%
same,"Fragments: LV, large vesicles",E. coli DSM 1103; 512 µg/mL,97%
same,"Membrane: i, intact",E. coli DSM 1103; 512 µg/mL,93%
same,"Membrane: w, wrinkled",E. coli DSM 1103; 512 µg/mL,7%
same,Vesicle release strong,E. coli DSM 1103; 512 µg/mL,93%
same,"remaining at 6 h, 0.5 g/L",P. aeruginosa elastase,79 ± 6%
same,MIC K. pneumoniae DSM 681,[1],32 µg/mL
same,"MIC P. aeruginosa DSM 1117, high inoculum",[2],64 µg/mL

# From paper PMC4861708 (Frontiers in Cell and Developmental Biology, 2016)
